Measurements reported in patent US20030008843A1, “Bulking agents as satiety agents” (priority 2001, published 2003).

What was measured:
[1] = humans; cited from earlier work
[2] = after ingestion of 25 g xylitol; control 58±5 min; cited from earlier work
[3] = after oral preloading of 25 g xylitol with water, cited from earlier work
[4] = ad libitum test lunch energy intake 1.5 hours after yoghurt pre-load, days 1 and 10 (Example 1); assay type: in vivo, human; details: for difference in average test meal energy intake versus control (significance): paired comparison; for difference in average test meal energy intake versus control (significance) / combined (pre-load and test lunch) energy intake versus control (significance): p<0.05; for combined (pre-load and test lunch) energy intake versus control (significance): post-hoc paired comparisons
Excerpt: Eight female and seven male subjects with mean ages ranging from about 29.5 to 30.7 yr. were used in the study. They were lean (having BMI of 21.6 Kg/m^2-23.8 Kg/m^2), and they exercised between 2-3 times per week. There were four experimental conditions that all subjects completed in a counterbalanced order with each condition separated by a one-week washout period. During each experimental condition, subjects were provided with either control or test yoghurts to consume as part of their normal diet for 10 consecutive days. The four experimental conditions differed according to the type of carbohydrate added to the yoghurt consumed: [table] Volunteers were required to consume one portion (200 g) of yoghurt on each of the 10 days. Therefore, energy content of the yoghurts varied between the four yoghurt formulations while weight was held constant. Subjects consumed the yoghurts for 10 consecutive days. However, days 2-9 were free-living during which time they were not required to visit the human appetite research unit (HARU), where the studies described hereinbelow were performed. On days 1 and 10 (test days), subjects were required to visit the HARU for a fixed breakfast at 8:30 a.m. and an ad libitum test lunch. The energy and nutrient content of the breakfast, was fixed for each of the conditions. Immediately after breakfast subjects were free to leave the unit and instructed to consume the yoghurt at 11:00am and not to consume any other food or drink during the breakfast-lunch interval. At 12:30 subjects returned to the unit for the ad libitum test lunch and were instructed to eat until a comfortable level of fullness. The food was weighed immediately before and after the test lunch to determine the energy and nutrient of food consumed. The test lunch was mixed composition (31% Fat, 53% Carbohydrate and 16% Protein) and consisted of sandwiches, […] fruit. Immediately after the test lunch subjects were provided with their yoghurts for days 2-9 and were instructed to return at 8:30 on day 10. On days 1 and 10, volunteers were provided with an ad libitum lunch 1.5 hours following consumption of the yoghurt pre-load.

Row | Compound | reduction of human absorption of fat [1] | gastric emptying T-1/2 [2] | reduction in calories versus control [3] | food intake ([3]; control 920±60 Kcal) | Suppression (%) in energy intake compared with the control yoghurt, All ([4]; all subjects, 25 g/day in 200 g yoghurt, test lunch 1.5 h after pre-load) | Suppression (%) in combined preload plus test meal energy intake compared with the control yoghurt, All ([4]; all subjects, energy content of pre-load accounted for) | Suppression (%) in combined preload plus test meal energy intake compared with the control yoghurt, Females ([4]; females, energy content of pre-load accounted for) | Suppression (%) in energy intake compared with the control yoghurt, Females ([4]; females, test lunch 1.5 h after pre-load) | Suppression (%) in combined preload plus test meal energy intake compared with the control yoghurt, Males ([4]; males, energy content of pre-load accounted for) | Suppression (%) in energy intake compared with the control yoghurt, Males ([4]; males, test lunch 1.5 h after pre-load) | difference in average test meal energy intake versus control (significance) [4] | difference in average test meal energy intake versus control (significance) ([4]; listed as xylitol) | combined (pre-load and test lunch) energy intake versus control (significance) [4] | combined (pre-load and test lunch) energy intake versus control (significance) ([4]; listed as xylitol)
1 | CCCCCCCCCCC[C@@H](C[C@@H]1OC(=O)[C@H]1CCCCCC)OC(=O)[C@H](CC(C)C)NC=O [tetrahydrolipostatin] | 30% | – | – | – | – | – | – | – | – | – | – | – | – | –
2 | OC[C@@H](O)[C@H](O)[C@@H](O)CO [Xyl, Xylitol] | – | 91 ± 7 min | 25% | 690 ± 45 kcal | 11.9% | 14.8% | 11.6% | 6.4% | 16.1% | 15.3% | statistically significant | significant reduction | significantly lower | significant calorie reduction
